Laboratory results reported in ChEMBL document CHEMBL2375269, “Triazolothiadiazoles and triazolothiadiazines--biologically attractive scaffolds” (Eur J Med Chem, 2013).
Converted amounts (≈) assume the structure as drawn.

Experiments:
[1] = Inhibition of acetylcholine esterase (unknown origin) using acetylthiocholine as substrate incubated for 15 mins prior to substrate addition measured after 5 mins by spectrophotometry; parameters: species or system Homo sapiens
[2] = tested on: Radical scavenging activity; test: Antioxidant activity of the compound assessed as DPPH radical scavenging activity after 30 mins by spectrophotometry; type: functional
[3] = Inhibition of urease (unknown origin) assessed as ammonia synthesis after 30 mins by microplate reader analysis; parameters: species or system Homo sapiens
[4] = target: Intestinal-type alkaline phosphatase (Bos taurus, UniProt P19111); test: Inhibition of calf intestinal alkaline phosphatase using p-NPP as substrate incubated for 10 mins prior to substrate addition measured after 30 mins by spectrophotometry
Intestinal-type alkaline phosphatase, sequence (P19111 whole entry): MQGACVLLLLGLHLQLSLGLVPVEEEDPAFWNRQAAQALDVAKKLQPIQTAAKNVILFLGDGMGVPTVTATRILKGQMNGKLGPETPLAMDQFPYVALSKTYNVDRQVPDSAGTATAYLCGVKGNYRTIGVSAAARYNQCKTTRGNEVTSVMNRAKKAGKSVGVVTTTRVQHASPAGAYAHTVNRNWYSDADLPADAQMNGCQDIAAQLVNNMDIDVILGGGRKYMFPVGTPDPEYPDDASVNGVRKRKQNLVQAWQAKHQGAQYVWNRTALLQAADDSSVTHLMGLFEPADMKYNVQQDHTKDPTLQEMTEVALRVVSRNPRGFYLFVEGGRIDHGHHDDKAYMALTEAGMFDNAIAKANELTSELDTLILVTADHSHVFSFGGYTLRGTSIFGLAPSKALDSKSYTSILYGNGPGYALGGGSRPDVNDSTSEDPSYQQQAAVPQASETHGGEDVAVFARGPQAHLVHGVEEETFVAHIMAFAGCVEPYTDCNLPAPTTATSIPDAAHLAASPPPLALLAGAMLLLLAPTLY

Staphylococcus aureus = test: Antibacterial activity against Staphylococcus aureus after 24 hrs by serial tube dilution method; type: functional
Bacillus subtilis = test: Antibacterial activity against Bacillus subtilis after 24 hrs by serial tube dilution method; type: functional
Escherichia coli = test: Antibacterial activity against Escherichia coli after 24 hrs by serial tube dilution method; type: functional
Shigella flexneri = test: Antibacterial activity against Shigella flexneri after 24 hrs by serial tube dilution method; type: functional

Row | Structure (SMILES) | IC50 [1] | further results
1 | Fc1cccc(Cc2nnc3sc(-c4ccoc4)nn23)c1 | 1780 nM | IC50 [2]: 31500 nM
2 | COc1ccc(-c2nnc3sc(-c4ccoc4)nn23)cc1 | 1780 nM | IC50 [3]: 764 nM; Ki [3]: 450 nM
3 | Brc1ccc(-c2nnc3sc(-c4ccoc4)nn23)cc1 | 1780 nM | IC50 [4]: 61 nM
4 | Brc1cccc(-c2nnc3sc(-c4ccoc4)nn23)c1 | 344 nM | –
5 | Fc1cnc(-c2nn3c(-c4ccccc4Cl)nnc3s2)c(F)c1 | – | MIC (Staphylococcus aureus): 0.156 µg/mL (≈ 0.446 µM); MIC (Bacillus subtilis): 0.156 µg/mL (≈ 0.446 µM); MIC (Escherichia coli): 0.156 µg/mL (≈ 0.446 µM); MIC (Shigella flexneri): 0.156 µg/mL (≈ 0.446 µM)
6 | Clc1ccccc1-c1nnc2sc(-c3ccoc3)nn12 | 1780 nM | –
7 | Clc1ccc(-c2nnc3sc(-c4ccoc4)nn23)cc1 | 1780 nM | –
8 | Fc1ccccc1Cc1nnc2sc(-c3ccoc3)nn12 | 1780 nM | –
9 | Fc1ccc(Cc2nnc3sc(-c4ccoc4)nn23)cc1 | 1780 nM | –
10 | COc1ccccc1-c1nnc2sc(-c3ccoc3)nn12 | 1780 nM | –
11 | COc1cccc(-c2nnc3sc(-c4ccoc4)nn23)c1 | 1780 nM | –
12 | COc1cccc(Cc2nnc3sc(-c4ccc(Cl)cc4)nn23)c1 | – | IC50 [2]: 9040 nM
13 | CCCOC(=O)c1cc(O)c(O)c(O)c1 [PROPYL GALLATE] | – | IC50 [2]: 40800 nM
